Earlier results as cited in the PKSmart pharmacokinetics tables (Seal et al. 2025).
*1 amine or outer side, *2 acyl side, *3 side chain or, on linkers, in order; H or OH if unused. Where a SMILES comes first, the peptide text is derived from it. Bridges are numbered along the chain shown (N, C = ends). [ ]: non-standard residue; d: D form. ξ: configuration not given here. ξPro(4R-OH) = O=C(O)C1C[C@@H](O)CN1; ξ2Thi = NC(Cc1cccs1)C(=O)O; ξR = N=C(N)NCCCC(N)C(=O)O; Iva = CC[C@](C)(N)C(=O)O; ξF = NC(Cc1ccccc1)C(=O)O; X3 = O=C(CCC[*:2])[*:1]; ξN = NC(=O)CC(N)C(=O)O; ξC = NC(CS)C(=O)O

Test: Lombardo, Berellini, Obach 2018, Drug Metab Dispos 46:1466, doi 10.1124/dmd.118.082966
Conditions: human; for MRT / Vd / clearance / half-life: in vivo, iv; for fraction unbound: plasma

SMILES | MRT [h] | Vd [L/kg] | clearance [mL/min/kg] | half-life [h] | fraction unbound
O=C1CCc2ccc(OCCCCN3CCN(c4cccc(Cl)c4Cl)CC3)cc2N1 | 98 | 4.9 | 0.83 | 75 | –
CCCNC(C)C(=O)Nc1ccccc1C (centres undefined) | 2.2 | 3.7 | 29 | 1.8 | 0.72
C/C(=C\[C@H](C(C)C)N(C)C(=O)C(NC(=O)C1CCCCN1C(C)C)C(C)(C)C)C(=O)O (some centres undefined) | 21.5 | 1.26 | 0.97 | 17.5 | –
S=P(N1CC1)(N1CC1)N1CC1 | 4 | 1.6 | 6.7 | 2.7 | –
CC1(C)S[C@@H]2C(NC(=O)C(C(=O)O)c3ccccc3)C(=O)N2C1C(=O)O (some centres undefined) | 1.5 | 0.17 | 1.9 | 1.1 | –
O=C1CN=C(c2ccccc2Cl)c2cc(Br)ccc2N1 | 28.3 | 0.089 | 0.05 | 14.9 | –
O=C1CCC[C@@H]2[C@H]3CCC[N@+]4(O)CCC[C@@H](CN12)[C@@H]34 | 1.33 | 0.61 | 7.66 | 1.69 | –
CCCc1c(OCCCS(=O)(=O)c2ccc(C(=O)CCC(=O)O)cc2)ccc(C(C)=O)c1O | – | – | 17.4 | 0.04 | –
C[C@H]1c2cccc(O)c2C(=O)C2=C(O)[C@]3(O)C(=O)C(C(N)=O)=C(O)[C@@H](N(C)C)[C@@H]3[C@@H](O)[C@@H]21 | 25 | 0.69 | 0.46 | 14 | –
C[C@@H](O)C1C(=O)N2C(C(=O)[O-])=C(S[C@H]3CC[S@@+](O)C3)S[C@@H]12 (some centres undefined) | 0.7 | 0.21 | 5.1 | 0.9 | 0.9
O=C1OC2(c3ccc(O)cc3Oc3cc(O)ccc32)c2ccccc21 | 1.8 | 0.14 | 1.3 | 1.6 | 0.11
CN1[C@@H]2CCC[C@H]1C[C@@H](NC(=O)c1nn(C)c3ccccc13)C2 | 6.7 | 3.7 | 9.1 | 5.2 | –
CC(C)[N+]1(C)[C@@H]2CC[C@H]1CC(OC(=O)C(CO)c1ccccc1)C2 (some centres undefined) | 2.7 | – | – | – | –
CN/C(=C\[N+](=O)[O-])NCCSCc1csc(CN(C)C)n1 | 1.7 | 1 | 9.8 | 1.5 | –
Nc1nc(-n2cc(C(=O)O)c(=O)c3cc(F)c(N4CC(O)C4)c(Cl)c32)c(F)cc1F | 2.5 | 0.35 | 2.33 | 2.1 | –
CSCCNc1nc(SCCC(F)(F)F)nc2c1ncn2[C@@H]1O[C@H](CO[P@](=O)(O)O[P@](=O)(O)C(Cl)(Cl)P(=O)(O)O)[C@@H](O)[C@H]1O | 0.07 | 0.035 | 9.06 | 0.14 | 0.02
CNC1=Nc2ccc(Cl)cc2C(c2ccccc2)=[N+](O)C1 | 11 | 0.25 | – | 8.3 | –
CCCN(CCC)CCc1cccc2[nH]c(O)cc12 | 4.3 | 7.7 | 30 | 6 | 0.6
Nc1nc(F)nc2c1ncn2[C@@H]1O[C@H](CO)[C@@H](O)[C@@H]1O | 12 | 2.2 | 3.2 | 11 | 0.76

SMILES | MRT [h] | Vd [L/kg] | clearance [mL/min/kg] | half-life [h] | fraction unbound
OCCN(CCO)c1nc(N2CCCCC2)c2nc(N(CCO)CCO)nc(N3CCCCC3)c2n1 | 6.8 | – | 2 | 13 | –
O=C(O)CCCC[C@@H]1CCSS1 | 0.14 | 0.1 | 11.5 | 0.21 | –
NC(=S)NN=Cc1ncccc1N | 2.6 | 0.41 | 2.65 | 1.9 | –
C=CCNc1nc(NCC=C)nc(N2CCN(C(c3ccc(F)cc3)c3ccc(F)cc3)CC2)n1 | 607 | 35.4 | 0.97 | 1340 | 0.01
CSCC(NC(=O)COc1cccc2cnccc12)C(=O)NC(Cc1ccccc1)C(O)C(=O)N1CSCC1C(=O)NC(C)(C)C (centres undefined) | 0.17 | 0.11 | 10.5 | 0.44 | –
CC(O)Cn1cnc2c1c(=O)n(C)c(=O)n2C (centres undefined) | 8.39 | 0.59 | 1.17 | 7.8 | –
O=C1CN=C(c2ccccc2)c2cc([N+](=O)[O-])ccc2N1 | 33 | 1.7 | 0.86 | 26 | –
COc1cccc(OCCCN)c1-c1cc(Nc2cnc(C#N)cn2)n[nH]1 | 11.2 | 22.8 | 34 | 12.5 | –
CN1CCN2c3ccccc3Cc3ccccc3[C@H]2C1 | 10.5 | 13.8 | 21.9 | 9.6 | 0.05
Cc1cc(-n2cccc2)c(S(C)(=O)=O)cc1C(=O)NC(=N)N | 2.3 | 1.1 | 8.2 | 2.2 | –
CCN(CC)CCNC(=O)c1cc(Br)c(N)cc1OC | 4 | 3.1 | 13 | 2.9 | 0.6
Nc1nc2ccc(OC(F)(F)F)cc2s1 | 5.2 | 3.5 | 11.3 | – | 0.04
O=c1[nH]cnc2c1ncn2[C@H]1CC[C@@H](CO)O1 | 1.2 | – | 11 | 1.4 | –
C=C(C)[C@@H]1CCC(C)=C[C@H]1c1c(O)cc(CCCCC)cc1O | 8.23 | 6.69 | 13.6 | 23.8 | –
C[C@H](CN1CCOCC1)C(C(=O)N1CCCC1)(c1ccccc1)c1ccccc1 | 3.88 | 0.47 | 2.19 | 3.18 | –
O=C(O)C1/C(=C/CO)O[C@@H]2CC(=O)N12 (some centres undefined) | 1 | 0.22 | 3.1 | 0.9 | –
C=Cc1c(C)c2[nH]c1=Cc1[nH]c(c(=CCC(=O)O)c1C)=Cc1[nH]c(c(C)c1CCC(=O)OC)C=C1NC(=C3C=CC(C(=O)OC)=C(C(=O)OC)[C@@]13C)C=2 | 6.6 | 0.63 | 1.6 | 5.6 | –
CC[C@]1(C)NC(=O)C(Cc2cccs2)NC(=O)C(Cc2ccccc2)NC(=O)CCCSCC(C(=O)N2C[C@H](O)CC2C(=O)NC(CCCNC(=N)N)C(=O)NCC(N)=O)NC(=O)C(CC(N)=O)NC1=O (stereo partly drawn) ([ξF][ξ2Thi][Iva][ξN][ξC][ξPro(4R-OH)][ξR]G-NH2; linker N-5 via X3) | 5.63 | 0.31 | 0.87 | 4.28 | –
